Measurements: PubChem BioAssay (NCI)
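Compound exposure: 48 hours, 5 concentrations, 96-well plates. Here, GI50 denotes the concentration required for 50% inhibition of growth. TGI: concentration producing complete growth inhibition.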

Key:
Test in all cases: NCI tumour cell line growth inhibition, 48 h
SW-620 colon = tested on: SW-620 colon
SNB-19 CNS = tested on: SNB-19 CNS
M14 melanoma = tested on: M14 melanoma
U251 CNS = tested on: U251 CNS
HS 578T breast = tested on: HS 578T breast
HCC-2998 colon = tested on: HCC-2998 colon
RXF 393 renal = tested on: RXF 393 renal
ACHN renal = tested on: ACHN renal
HL-60(TB) leukemia = tested on: HL-60(TB) leukemia
EKVX NSCLC = tested on: EKVX NSCLC

Row | SMILES | GI50 (SW-620 colon) [nM] | TGI (SW-620 colon) [µM] | GI50 (SNB-19 CNS) [µM] | TGI (SNB-19 CNS) [µM] | GI50 (M14 melanoma) [nM] | TGI (M14 melanoma) [µM] | GI50 (U251 CNS) [nM] | TGI (U251 CNS) [µM] | GI50 (HS 578T breast) [µM] | TGI (HS 578T breast) [µM] | GI50 (HCC-2998 colon) [nM] | TGI (HCC-2998 colon) [µM] | GI50 (RXF 393 renal) [nM] | TGI (RXF 393 renal) [µM] | GI50 (ACHN renal) [µM] | TGI (ACHN renal) [µM] | GI50 (HL-60(TB) leukemia) [nM] | TGI (HL-60(TB) leukemia) [µM] | GI50 (EKVX NSCLC) [µM] | TGI (EKVX NSCLC) [µM]
1 | O=C1c2ccccc2-c2c1c1c(O)cccc1n2CCCc1ccccc1 | 51900 | > 100 | 85.2 | > 100 | > 100000 | > 100 | 26400 | > 100 | 41.7 | > 100 | 2350 | 6.01 | 5870 | 68.5 | 14.1 | 66.9 | 28100 | > 100 | 10.3 | 98.3
2 | COc1ccccc1N(C(C)=O)C1=C(Cl)C(=O)c2ccccc2C1=O | 1060 | 2.55 | 3.16 | > 40.8 | 1880 | 5.91 | 2620 | 11.8 | 2.7 | > 71.9 | 2230 | 8.61 | 1120 | 2.45 | 1.43 | 2.73 | 2240 | 5.53 | 0.751 | 6.95
3 | Oc1[nH]c2ccc(Cl)cc2c1/C=c1/ccc2c(c1)N=C(c1ccc(C(F)(F)F)cc1)N=2 | 1970 | 4.1 | 3.12 | 17 | 1670 | 3.34 | 1740 | 3.47 | 2.4 | 6.86 | 2100 | 4.81 | 1880 | 3.76 | 3.24 | 15.4 | 2610 | 5.55 | 3.16 | 18.3
4 | Nc1ncnc2c1nc(N)n2C1OC(CO)C(O)C1O (stereo not given) | 182 | 1.31 | 1.34 | 6.28 | 110 | 0.355 | 1350 | 7.06 | 2.45 | > 28.4 | 320 | 1.66 | 1450 | 3.36 | 0.348 | > 100 | 376 | 3.67 | 0.231 | 1.27
5 | Cc1cc(NS(=O)(=O)c2ccc(NC(=O)COc3ccc(-c4cc5ccccc5[nH]4)cc3)cc2)no1 | 1480 | 3.52 | 2.23 | 8.69 | 1710 | 4.32 | 1860 | 6.74 | 1.98 | 4.98 | 2070 | 4.94 | 1240 | 2.6 | 2.44 | 6.9 | 2840 | 32.6 | 2.32 | 8.45
6 | Cc1ccc2nc3sc(=O)sc3nc2c1 |  | 67.9 |  | 36.7 |  | 33.5 |  | 30.8 |  | 61.8 |  | 30.2 |  | 67.8 |  | 28.5 |  | 44.1 |  | 27.2
7 | CC(=O)Nc1cc(C(c2ccccc2)c2ccccc2)cc(C(c2ccccc2)c2ccccc2)c1C | 7250 | > 100 | > 100 | > 100 | > 100000 | > 100 | 7630 | > 100 | 28 | > 100 | 14700 | > 100 | 27500 | > 100 | 8.71 | > 100 | 3100 | > 100 | 3.23 | > 100
8 | O=C1c2cccc3cccc(c23)C(=O)N1CC#Cc1ccc2c3c(cccc13)C(=O)N(CCN1CCNCC1)C2=O | 1940 | 3.79 | 1.96 | 4.18 | 2530 | 6.19 | 1870 | 3.78 | 11.2 | 33.7 | 2100 | 4.94 | 2700 | 10.4 | 2.75 | 7.96 | 4120 | > 100 | 15.7 | 39.7
9 | CCN1CCN(CC(=O)Nc2nc3ccc(NCc4ccc(C)cc4)cc3s2)CC1 | 1600 | 6.07 | 5.98 | 13.5 | 1140 | 2.19 | 2770 | 9.14 | 5.12 | 15.9 | 6500 | 14.6 | 1990 | 8.5 | 6.06 | 12.3 | 1050 | 2.25 | 5.67 | 13.8
10 | COC(=O)c1c2c(c(C)[n+]([O-])c1C)C(=O)C=C(NCc1ccc(Br)cc1)C2=O | 170 | 1.71 | 1.23 | 2.48 | 44.2 | 1.04 | 778 | 2.46 | 2.4 | 8.05 | 491 | 1.9 | 1090 | 2.54 | 0.575 | 2.1 | 309 | 1.5 | 0.763 | 2.37
11 | O=[N+]([O-])c1ccc(Oc2cccc(C(F)(F)F)c2)c([N+](=O)[O-])c1 | 451 | 10.1 | 5.25 | 18.3 | 2790 | 14 | 3610 | 14.2 | 3.99 | 32 | 2300 | 6.51 | 2610 | 7.87 | 3.39 | 13.8 | 1700 | 4.65 | 7.11 | 22.5
12 | O=C1NC(=O)C(N2CCc3ccccc32)=C1c1ccc(Cl)cc1 | > 25000 | > 25 | > 25 | > 25 | > 25000 | > 25 | > 25000 | > 25 | > 25 | > 25 | > 25000 | > 25 | > 25000 | > 25 | > 25 | > 25 | 24300 | > 25 | > 24.1 | > 25
13 | Nc1nc2c(c(=O)[nH]1)N=C(COP(=O)(O)OP(=O)(O)O)CN2 |  | > 100 |  | > 100 |  | > 100 |  | > 100 |  | > 100 |  | > 100 |  | > 100 |  | > 100 |  | > 100 |  | > 100
